In ChEMBL document CHEMBL1128881, “The in vitro effects of three lysosomotropic detergents against three human tumor cell lines” (Bioorg Med Chem Lett, 1995):

Experiments:
[1] = Dissociation constant was measured in water; format: physicochemical
[2] = Tested for inhibition of DNA synthesis at a dose range of 1.9-2.4 ug/ml after 30 min; range of 8-10 uM; format: functional

pKa ([1]; water, read-out: pKa)	pKa ([1]; buffer)	Compound	also measured
–	–	CCCCCCCCCCCCNC(=O)[C@@H](N)COC	pKa [1]: 5.9; IC50 [2]: 10 µM
6.3	–	CCCCCCCCCCCCn1ccnc1 [listing 1 of 2 here]	–
7.5	–	CCCCCCCCCCCCNC(=O)[C@@H](N)CO	–
–	5.8	CCCCCCCCCCCCNC(=O)[C@@H](N)CO.Cl	–
–	7.5	CCCCCCCCCCCCn1ccnc1 [listing 2 of 2 here]	–

Compound	pKa ([1]; water, read-out: pKa)	pKa ([1]; buffer)	also measured
Cn1ccnc1 [1-METHYLIMIDAZOLE]	7	–	–
